Source: patent publication US5166214A, “Use of imidazoles for the treatment of atherosclerosis” (priority 1990, dated 1992)

Test system: murine macrophage-like cell line J774.A1
Assay: Inhibition of cholesterol esterification in mammalian cells (macrophage assay)
Assay type: cell-based
Conditions: J774.A1 macrophages loaded with ac-LDL, 14C-oleic acid; read-out: Cholesterol Esterification IC50
Description: B. Assay of the Inhibition of Cholesterol Esterification in Mammalian Cells
The esterification of cholesterol was determined in the murine macrophage-like cell line J774.A1. Cells were seeded in 35 mm wells at a density of 300,000 cells per well in 2 mls of Dulbecco's Eagle Medium (DMEM) supplemented with 10% fetal bovine serum (FBS). Cells were incubated at 37° C. in an atmosphere of 5% CO2 and 93% humidity. After 24 hours the media was changed to 0.68 mls 10% FBS-DMEM containing 34 μg of acetylated human low density lipoprotein (ac-LDL) to increase the intracellular concentration of cholesterol and promote esterification. At 41 hours, various inhibitors were added to the cells in DMSO (10 μl/ml maximum). At 43 hours, the cells were pulsed with 0.1 mM ^14 C-oleic acid (10,000 dpm/nmol) complexed with BSA (bovine serum albumin) to follow cholesterol ester formation. The experiment was terminated at 45 hours by washing the monolayers 3 times with 3 ml of Tris-buffered saline at 4° C. The lipids were extracted by incubating the monolayers with 1.5 ml of hexane:isopropanol (3:2, v/v) for 30 min. under gentle agitation. During this period, 10,000 dpm 3H-cholesteryl linoleate and 10 μg of cholesteryl oleate were added as an internal standard and carrier respectively. The organic solvent was removed and the cells were washed with an additional 1.0 ml of hexane: isopropanol which was combined with the original extract. The cells were allowed to dry overnight, digested with 1.5 ml of 0.2N sodium hydroxide for 1 hour and an aliquot of the solubilized protein used for protein determination using the Lowry method. The organic extract was taken to dryness, the residue resuspended in 100 μl of chloroform and the lipids separated on silica gel impregnated glass fiber plates using a hexane:diethylether:acetic acid (170:30:1, v/v/v) solvent system. Individual lipids were visualized with iodine and the cholesteryl ester spot cut out and transferred to scintillation vials to determine the amount of radioactivity. The conversion of oleic acid to cholesteryl ester in the control averaged 0.54 […] and was increased upon the addition of ac-LDL to about 10.69±0.69 […]. […] It should be noted that many of the intermediates had inhibitory activity in the in vitro ACAT assay and in the macrophage assay.

Structure (SMILES)	IC50 [nM]
CCCCCCCN(CCCCCCCCSc1nc(-c2ccccc2)c(-c2ccccc2)[nH]1)C(=O)Nc1ccc(F)cc1F [Example 3, N'-(2,4-difluorophenyl)-N-[8-(4,5-diphenyl-1H-imidazol-2-ylthio)octyl]-N-heptylurea]	17500
CCCCCCCN(CCCCCSc1nc(-c2ccccc2)c(-c2ccccc2)n1C)C(=O)Nc1ccc(F)cc1F [Example 6, N'-(2.4-difluorophenyl)-N-heptyl-N-[5-(1-methyl-4,5-diphenyl-1H-imidazol-2-ylthio)pentyl]urea]	3800
CCCCCCCN(CCCCCSc1nc(-c2ccccc2)c(-c2ccccc2)[nH]1)C(=O)NCCC [Example 8, N-[5-(4,5-diphenyl-1H-imidazol-2-ylthio)pentyl]-N-heptyl-N'-propylurea]	500
CCCCCCCN(CCCCCSc1nc(-c2ccccc2)c(-c2ccccc2)[nH]1)C(=O)Nc1c(F)cc(F)cc1F [Example 71, N-[5-(4,5-diphenyl-1H-imidazol-2-ylthio)pentyl]-N-heptyl-N'-(2,4,6-trifluorophenyl)urea]	1900
CCCCCCCN(CCCCCSc1nc(-c2ccccc2)c(-c2ccccc2)[nH]1)C(=O)NC1CCCCC1 [Example 94, N'-cyclohexyl-N-[5-(4,5-diphenyl-1H-imidazol-2-ylthio)pentyl]-N-heptylurea]	100
CCCCCCCN(CCCCCSc1nc(-c2ccccc2)c(-c2ccccc2)[nH]1)C(=O)NC(C)C [Example 105, N-[5-(4,5-diphenyl-1H-imidazol-2-ylthio)pentyl]-N-heptyl-N'-(1-methylethyl)urea]	300
CCCCCCCN(CCCCCSc1nc(-c2ccccc2)c[nH]1)C(=O)Nc1ccc(F)cc1F [Example 160, N'-(2,4-difluorophenyl)-N-heptyl-N-[5-(4-phenyl-1H-imidazol-2-ylthio)pentyl]urea]	1600
CCCCCCCN(CCSc1nc(-c2ccccc2)c(-c2ccccc2)[nH]1)C(=O)Nc1ccc(F)cc1F [Example 189, N'-(2,4-difluorophenyl)-N-[2-(4,5-diphenyl-1H-imidazol-2-ylthio)ethyl]-N-heptylurea]	2200
CCCN(CCCCCSc1nc(-c2ccccc2)c(-c2ccccc2)[nH]1)C(=O)Nc1ccc(F)cc1F [Example 190]	2200
CCCCCCCN(CCCCCSc1nc(-c2ccccc2)c(-c2ccccc2)[nH]1)C(=O)Nc1ccc(-c2ccccc2)cc1 [Example 192, N'-[(1,1'-biphenyl)-4-yl]-N-[5-(4,5-diphenyl-1H-imidazol-2-ylthio)pentyl]-N-heptylurea]	2000
CCCCCCCN(CCCCCSc1nc(-c2ccc(C(C)(C)C)cc2)c(-c2ccc(C(C)(C)C)cc2)[nH]1)C(=O)Nc1ccc(F)cc1F [Example 203]	50000
CCCCCCCCNC(=O)N(CCCCCSc1nc(-c2ccccc2)c(-c2ccccc2)[nH]1)c1ccc(F)cc1F [Example 206, N-(2,4-difluorophenyl)-N-[5-(4,5-diphenyl-1H-imidazol-2-ylthio)pentyl]-N'-octylurea]	400
CCCCCCCCNC(=O)N(CCCCCSc1nc(-c2ccccc2)c(-c2ccccc2)[nH]1)c1c(F)cc(F)cc1F [Example 208]	2800
CCCCCCCN(CCCCCSc1nc(-c2ccccc2)cn1-c1ccccc1)C(=O)Nc1ccc(F)cc1F [Example 259]	900
CCCCCCCN(CCCCCSc1ncc(-c2ccccc2)n1-c1ccccc1)C(=O)Nc1ccc(F)cc1F [Example 260]	6000
CCCCCCCN(CCCCCSc1nc(-c2ccccc2)c(-c2ccccc2)[nH]1)C(=S)Nc1ccc(F)cc1F [Example 276, N'-(2,4-difluorophenyl)-N-[5-(4,5-diphenyl-1H-imidazol-2-ylthio)pentyl]-N-heptylthiourea]	6100
CCCCCCCN(CCCCC[S+]([O-])c1nc(-c2ccccc2)c(-c2ccccc2)[nH]1)C(=O)Nc1ccc(F)cc1F (centres unmarked) [Example 278, N'-(2,4-difluorophenyl)-N-[5-(4,5-diphenyl-1H-imidazol-2-ylsulfinyl)pentyl]-N-heptylurea]	1200
CCCCCCCN(CCCCCS(=O)(=O)c1nc(-c2ccccc2)c(-c2ccccc2)[nH]1)C(=O)Nc1ccc(F)cc1F [Example 281, N'-(2,4-difluorophenyl)-N-[5-[(4,5-diphenyl-1H-imidazol-2-yl)sulfonyl]pentyl]-N-heptylurea]	3500
CCCCCCCN(CCCCCSc1nc(-c2ccccc2)c(-c2ccccc2)[nH]1)C(=S)Nc1c(F)cc(F)cc1F [Example 298, N-[5-(4,5-diphenyl-1H-imidazol-2-ylthio)pentyl]-N-heptyl-N'-(2,4,6-trifluorophenyl)thiourea]	2500
CCCCCCCN(CCCCCNc1nc(-c2ccccc2)c(-c2ccccc2)[nH]1)C(=O)Nc1ccc(F)cc1F [Example 338, N'-(2,4-difluorophenyl)-N-[5-(4,5-diphenyl-1H-imidazol-2-ylamino)pentyl]-N-heptylurea]	3400
CCCCCCCN(CCCCCCc1nc(-c2ccccc2)c(-c2ccccc2)[nH]1)C(=O)Nc1ccc(F)cc1F [Example 339, N'-(2,4-difluorophenyl)-N-[6-(4,5-diphenyl-1H-imidazol-2-yl)hexyl]-N-heptylurea]	4400
CCCCCCCN(CCCCCSc1nc(-c2ccccc2)c(-c2ccccc2)[nH]1)C(=O)Cc1ccc(F)cc1F [Example 340, 2,4-difluoro-N-[(5-(4,5-diphenyl-1H-imidazol-2-ylthio)pentyl)]-N-heptylbenzeneacetamide]	200
CCCCCCCN(CCCCCSc1nc(-c2ccccc2)c(-c2ccccc2)[nH]1)C(=O)Cc1ccc(-c2ccccc2)cc1 [Example 343, N-[5-(4,5-diphenyl-1H-imidazol-2-ylthio)pentyl]-N-heptyl[1,1'-biphenyl]-4-acetamide]	1100
CCCCCCCN(CCCCCSc1nc(-c2ccccc2)c(-c2ccccc2)[nH]1)C(=O)CC1CCCCC1 [Example 344]	400
CCCCCCCN(CCCCCSc1nc(-c2ccccc2)c(-c2ccccc2)[nH]1)C(=O)c1ccc(F)cc1F [Example 345]	300
CCCCCCCN(CCCCCSc1nc(-c2ccccc2)c(-c2ccccc2)[nH]1)C(=O)c1ccccc1 [Example 346]	500
CCCCCCCN(CCCCCSc1nc(-c2ccccc2)c(-c2ccccc2)[nH]1)C(=O)OC1CCCCC1 [Example 401, cyclohexyl [5-(4,5-diphenyl-1H-imidazol-2-ylthio)pentyl]heptylcarbamate]	400
CCCCCCCN(CCCCCSc1nc(-c2ccccc2)c(-c2ccccc2)[nH]1)C(=O)Oc1ccccc1 [Example 402, Phenyl [5-(4,5-diphenyl-1H-imidazol-2-ylthio)pentyl]heptylcarbamate]	400
CCCCCCCN(CCCCCSc1nc(-c2ccccc2)c(-c2ccccc2)[nH]1)C(=N)Nc1ccccc1 [Example 499, N-[5-(4,5-diphenyl-1H-imidazol-2-ylthio)-pentyl]-N-heptyl-N'-phenylguanidine]	3400
